Values of other authors in patent publication US11083740B2, “Cancer therapy” (NED Biosystems, Inc., priority 2013, dated 2021).

Assays:
[1] = tested on: HUVECs; conditions: partially AMPK-dependent
[2] = tested on: cultured bovine granulosa cells; conditions: AMPK-dependent mechanism
[3] = tested on: hormone refractory PC-3 prostate cancer cells; conditions: PC-3 cells
[4] = in vivo
[5] = in vivo; remark: listed apart in the source
[6] = in vivo; remark: listed apart in the source
[7] = tested on: HUVECs
[8] = tested on: pancreatic carcinoma cells

CN(C)C(=N)N=C(N)N [Metformin]
proliferation, migration, and MMP-2 and -9 expression [1]: strongly inhibited | response to IGF1 [2]: reducing cell growth, protein synthesis, MAPK3/1, and P90RSK phosphorylation

O=c1c(-c2ccc(O)cc2)coc2cc(O)cc(O)c12 [Genistein]
IGF-1-stimulated cell growth [3]: significant inhibition

O=C(O)CCCCC1CCSS1 (stereo not drawn) [Alpha-Lipoic Acid, 1,2-dithiolane-3-pentanoic acid]
bioavailability when taken with a meal [4]: decreases

[Met(5)]-enkephalin [Opioid Growth Factor [Met(5)]-enkephalin]
toxicity of metronomic dosing (50 μg/kg injected subcutaneously twice daily): no toxicity | maximum tolerated dose (30-minute intravenous infusion once or twice weekly): 0.25 mg/kg

CC(C)[C@@H](CC[C@@H](C)[C@H]1CC[C@H]2[C@@H]3[C@H](O)C[C@H]4C[C@@H](NCCCNCCCCN)CC[C@]4(C)[C@H]3CC[C@]12C)OS(=O)(=O)O [Squalamine]
maximum tolerated dose (MTD) [5]: 300 mg/m2/day | oral bioavailability [6]: does not have high oral bioavailability

COc1ccc2[nH]cc(CCNC(C)=O)c2c1 [Melatonin, N-acetyl-5-methoxytryptamine]
cell proliferation and migration [7]: inhibits | VEGF protein secreted and produced [8]: decreases
